From US20240374560A1, “FIBER-ENHANCED LIPOSOME AND METHODS” (Vidya Herbs, Inc., priority 2023, published 2024) come the findings set out here.

Where a name gives a salt, the structure may show the parent alone.

The nature of series [1]: Pharmacokinetic study of berberine after single oral dose. The class given is in vivo, Wistar rats. The note with it: male, Wistar, berberine in rat plasma.
The nature of series [2]: In vitro release study of berberine, dialysis set up. Format: physicochemical. Particulars: after 6 h, pH 7.4.
A short description of series [3]: Pharmacokinetics of ursolic acid after single oral dose. The note with it: ursolic acid in rat plasma.
Another series can be described thus: in vivo. Particulars: male, Wistar, rat, plasma, po, 60 mg/kg.
Series [4] is described as follows: In vitro release study of vitamin C, dialysis set up. Format: physicochemical. Particulars: after 8 h, PBS pH 7.4, 37° C. The protocol:
The comparative in vitro release study of vitamin C encapsulated in the inventive liposome versus and non-encapsulated vitamin C (control) was performed using the dialysis set up. […] A weighed quantity of encapsulated vitamin C (50 mg) was suspended in 10 mL of PBS and transferred into the dialysis bag (donor compartment). […] A control experiment was performed simultaneously in which unencapsulated vitamin C solution was dialyzed. […] The absorbance of the samples was measured at 295 nm. The concentration of vitamin C in the samples was determined using a standard curve.

The conditions of series [5]: after 3 h; dialysis, PBS pH 7.4, 37° C.
Protocol: The comparative in vitro release study of caffeine encapsulated in the inventive liposome versus plain caffeine (control) was performed using a dialysis set up. Prior to the diffusion experiment, the cellulose acetate dialysis membrane (Sigma Aldrich, Molecular weight cut-off (MWCO) 12 kDa) was soaked in phosphate buffered saline (PBS, pH 7.4) for 12 h. A weighed quantity of liposomal caffeine (50 mg) was suspended in 10 mL of PBS and transferred into the dialysis bag (donor compartment). The dialysis bag was placed in a beaker containing 100 mL of PBS (receptor compartment). The setup was incubated at 120 rpm for 8 h in a 37° C. shaker incubator.
A control experiment was performed simultaneously in which a plain caffeine solution was dialyzed. A 1 mL aliquot of PBS in the receptor compartment was sampled at different time points and an equal quantity of fresh PBS was replaced in the compartment after each withdrawal. The caffeine content in the samples were quantified using HPLC.
Series [6] in a line: In vitro release study of glutathione, dialysis set up. Particulars: after 7 h, pH 7.4. The class given is physicochemical. As for the experimental part:
The comparative in vitro release study of glutathione encapsulated in the inventive liposome and non-encapsulated glutathione (control) was performed using the dialysis set up. […] A control experiment was performed simultaneously in which the non-encapsulated glutathione solution was dialyzed. […] The concentration of glutathione in the samples was determined using the validated HPLC method.
The mobile phase consisted of 50 mM phosphate buffer. The injection volume was 5 μL. The detection was carried out at 230 nm.

A short description of series [7]: Comparative oral bioavailability of vitamin C, crossover study in healthy volunteers. The note with it: human, in vivo. The protocol:
The inventive liposome comprised at least 40% w/w Vitamin C.
A group of 12 healthy volunteers were screened on Visit 1 to confirm their eligibility. Subjects fulfilling the eligibility criteria were randomized into 1 of 2-treatment sequences on Visit 2. There was a washout period of 7 days each between the 2 dosing days. […] Subjects returned to the study center for the second period. On the morning of Day 1, in each period, subjects in a fasting state (at least 10 hours before dosing) received one 600 mg capsule orally of their assigned formulation (Table 2) as per randomization scheme, with 200±2 mL of water at room temperature. The study duration was approximately 12 days (2 dosing days and 1 washout period of 7±1 days). A total of 10 blood samples were collected in each of the two study periods. The pre-dose samples (2 mL) were collected within 1 hour before dosing. The post-dose samples (1×2 mL) were collected at 30 min, 60 min, 2, 3, 4, 5, 6, 8 and 12 hours after dosing in vacuum tubes containing K2 EDTA. All blood samples were collected from an ante-cubital vein or any suitable forearm vein using an indwelling cannula. Before each blood sample is drawn, 1 mL of blood was discarded so as to prevent the saline diluted blood and heparin from interfering with the analysis.
Plasma concentrations were measured using ultra performance liquid chromatographyelectrospray ionization-tandem mass spectrometry (UPLC-ESI-MS/MS), gas chromatography mass spectrometry (GC-MS/MS) and High-Performance Liquid Chromatography (HPLC). All the pharmacokinetic parameters were compared between the two treatment groups using Pair-t-test with 5% level of significance. All statistical analysis was performed using R statistical software version 4.2.1.

In the case of `COc1ccc2cc3[n+](cc2c1OC)CCc1cc2c(cc1-3)OCO2` [Control (Unformulated), berberine HCl], in series [1] (320 mg/kg, single oral dose), the AUC(0-t) turned out to be 410 ± 40 ng·h/mL and the Tmax was 0.25 h. For the same molecule, the half-life in series [1] (320 mg/kg, single oral dose, read-out: t½ (converted)) is 7.32 ± 0.61 h. This molecule also displayed a Cmax in series [1] (single oral dose (600 mg/kg encapsulated; 320 mg/kg berberine HCl)) of 15.5 ± 9.66 ng/mL. Besides, in series [2], the “berberine cumulative release %” value turned out to be 100%.
Consider `C[C@H]1[C@H](C)CC[C@]2(C(=O)O)CC[C@]3(C)C(=CC[C@@H]4[C@@]5(C)CC[C@H](O)C(C)(C)[C@@H]5CC[C@]43C)[C@H]12` [Control, ursolic acid], for which, in series [3], the Kel is 0.15 ± 0.004 h⁻¹ and the “maximum plasma concentration of UA” value was 201 ± 42.43 ng/mL. Further, the Kel in series [3] (listed as control) is 0.15 ± 0.004 h⁻¹. Further, in the series “in vivo”, the AUC(0-t) was 877 ± 44.6 ng·h/mL, the highest level (Cmax) was 201 ± 42.4 ng/mL, the Tmax is 0.75 ± 0.35 h and the half-life is 4.49 ± 0.11 h. Besides, in series [4], the “vitamin C released” value came to 67.54%. In series [5], the caffeine released was 100%.
Regarding `N[C@@H](CCC(=O)N[C@@H](CS)C(=O)NCC(=O)O)C(=O)O` [non-encapsulated glutathione, glutathione], in series [6], the “glutathione cumulative release %” value was 96.86%.
Consider `O=C1O[C@H]([C@@H](O)CO)C(O)=C1O` [unformulated Vitamin C, vitamin C], for which the AUC(0-inf) in series [7] was determined as 6260 ± 4560 ng·h/mL. In series [7], the AUC(0-t) was 4130 ± 1740 ng·h/mL. The molecule further returned a Cmax in series [7] of 970 ng/mL. The molecule also came in with an MRT in series [7] of 9.3 ± 8.42 h. Further, in series [7], the Tmax worked out at 2.67 ± 1.07 h. For the same molecule, the “Plasma concentration of vitamin C, Mean” value is 219.99 in series [7] (0.5 h); 502.39 in series [7] (1 h); 728.44 in series [7] (2 h); 680.46 in series [7] (3 h); 456.28 in series [7] (4 h); 405.53 in series [7] (5 h). The results for the “Plasma concentration of vitamin C, Mean” value in series [7] (6 h), in series [7] (8 h) and in series [7] (12 h) were 338.54, 219.14 and 162.08, respectively.

Usually AUC(0-t) stands for the area under the concentration-time curve up to a stated or last time point. Higher therefore signals more exposure. The Tmax is the time at which the peak concentration occurs. In general, Cmax refers to the highest concentration seen after dosing. The term AUC(0-inf) denotes total exposure, with the tail of the curve extrapolated. For orientation: MRT means the average time that molecules of a dose stay in the body.
